Some test systems named below: SK-MEL-2 melanoma; CCRF-CEM leukemia; OVCAR-4 ovarian; SNB-75 CNS; MALME-3M melanoma; OVCAR-5 ovarian; MDA-MB-435; SK-MEL-5 melanoma; OVCAR-3 ovarian; EKVX NSCLC.
What all share (assay): NCI-60 cell line screen, 48 h

SMILES strings stand for the structures.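 Exposure lasted 48 hours, with cells grown in 96-well plates and compounds tested at five concentrations. The concentration for 50% growth inhibition is given as GI50. TGI is the concentration that stops growth completely.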

Regarding `Nc1c(C(=O)c2cccc(C#CCN3CCCCC3)c2)cnn1-c1ccc(F)cc1`, the GI50 was above 25 µM in the experiment with SK-MEL-2 melanoma; above 25000 nM in the experiment with CCRF-CEM leukemia; above 22.6 µM in the experiment with OVCAR-4 ovarian; above 25 µM in the experiment on SNB-75 CNS; above 25 µM with MALME-3M melanoma; above 25 µM in the experiment on OVCAR-5 ovarian. Besides, the GI50 with MDA-MB-435 is 15.3 µM; in the experiment with SK-MEL-5 melanoma, 9.59 µM; with OVCAR-3 ovarian it was above 25 µM. The TGI in the experiment with SK-MEL-2 melanoma, in the experiment with CCRF-CEM leukemia, with OVCAR-4 ovarian, with SNB-75 CNS, with MALME-3M melanoma and in the experiment on OVCAR-5 ovarian was above 25 µM each time. In addition, the TGI in the experiment with MDA-MB-435, in the experiment with SK-MEL-5 melanoma and with OVCAR-3 ovarian was above 25 µM each time.
Turning to `O=C(Nc1cccc2[nH]c(C(F)(F)F)nc12)c1cc(Cl)ccc1Cl`, the GI50 is 2.79 µM in the experiment on SK-MEL-2 melanoma; 3160 nM in the experiment with CCRF-CEM leukemia; 2.59 µM in the experiment on OVCAR-4 ovarian; 2.06 µM in the experiment on SNB-75 CNS; 2.85 µM in the experiment with MALME-3M melanoma; 4.03 µM with OVCAR-5 ovarian. The GI50 with MDA-MB-435 is 2.96 µM; in the experiment with SK-MEL-5 melanoma it was 1.77 µM; in the experiment on OVCAR-3 ovarian, 3.4 µM. Moreover, the TGI in the experiment on SK-MEL-2 melanoma was 6.66 µM; with CCRF-CEM leukemia it was 46.8 µM; in the experiment on OVCAR-4 ovarian, above 100 µM; with SNB-75 CNS, 8.06 µM; in the experiment on MALME-3M melanoma, 8.61 µM; in the experiment on OVCAR-5 ovarian, above 100 µM. Further, the figures for the TGI in the experiment on MDA-MB-435, in the experiment with SK-MEL-5 melanoma and with OVCAR-3 ovarian were 12.4 µM, 3.45 µM and 10.3 µM, respectively.
`COc1ccc(-c2cnnn2-c2nonc2-n2cccc2)cc1OC`: the GI50 in the experiment with CCRF-CEM leukemia was 3300 nM; with OVCAR-4 ovarian, 18.6 µM; in the experiment with SNB-75 CNS, 4.19 µM; with MALME-3M melanoma, 3.86 µM; with OVCAR-5 ovarian it was 17.8 µM; in the experiment on MDA-MB-435, 0.716 µM. Further, the values for the GI50 with SK-MEL-5 melanoma and with OVCAR-3 ovarian were 4.6 µM and 3.97 µM, respectively. For the same compound, the TGI with CCRF-CEM leukemia was above 100 µM; in the experiment with OVCAR-4 ovarian, above 100 µM; in the experiment on SNB-75 CNS it was 39.2 µM; in the experiment with MALME-3M melanoma, above 100 µM; with OVCAR-5 ovarian it was above 100 µM; in the experiment on MDA-MB-435, 3.01 µM. In addition, the TGI in the experiment on SK-MEL-5 melanoma is 21.1 µM; in the experiment with OVCAR-3 ovarian it was above 100 µM.
On to `C#CCN(N=O)C(=O)ON1C(=O)CCC1=O`, for which the TGI with SK-MEL-2 melanoma, in the experiment on CCRF-CEM leukemia, in the experiment on EKVX NSCLC, in the experiment on OVCAR-4 ovarian, in the experiment on SNB-75 CNS and in the experiment on MALME-3M melanoma was above 100 µM throughout. The TGI with OVCAR-5 ovarian, in the experiment on SK-MEL-5 melanoma and with OVCAR-3 ovarian was above 100 µM in each case.
Regarding `C=C(CN1CCc2c([nH]c3ccccc23)C1)c1ccc(C(=O)Nc2ccccc2N)cc1`, the GI50 in the experiment with SK-MEL-2 melanoma is 4.54 µM; with CCRF-CEM leukemia, 58.1 nM; in the experiment with EKVX NSCLC, 2140 nM; with OVCAR-4 ovarian, 5.48 µM; with OVCAR-5 ovarian, 7.15 µM; in the experiment on MDA-MB-435, 8.47 µM. The GI50 in the experiment on SK-MEL-5 melanoma was 2.61 µM; in the experiment on OVCAR-3 ovarian, 18.4 µM. Also, the TGI came to 22 µM with SK-MEL-2 melanoma; 46.3 µM in the experiment on CCRF-CEM leukemia; 13.5 µM with EKVX NSCLC; 13.5 µM with OVCAR-4 ovarian; 31.6 µM in the experiment on OVCAR-5 ovarian; 17.7 µM with MDA-MB-435. Also, the TGI in the experiment on SK-MEL-5 melanoma amounted to 6.88 µM; in the experiment on OVCAR-3 ovarian, 29.1 µM.
Take `CC(=O)/C=C/c1ccc(Nc2c3ccccc3nc3occ(Cl)c23)cc1`: the GI50 with SK-MEL-2 melanoma is 42.6 µM; with CCRF-CEM leukemia, 2960 nM; in the experiment on EKVX NSCLC, 27200 nM; with OVCAR-4 ovarian it was 4.35 µM; with SNB-75 CNS, 18.3 µM; with MALME-3M melanoma, 6.48 µM. The values for the GI50 with OVCAR-5 ovarian and in the experiment on MDA-MB-435 were 13.9 µM and 2.03 µM, respectively. Also, the TGI was above 100 µM with SK-MEL-2 melanoma; 19.7 µM in the experiment with CCRF-CEM leukemia; 78.2 µM in the experiment on EKVX NSCLC; 30.2 µM in the experiment with OVCAR-4 ovarian; 59.4 µM with SNB-75 CNS; 24.9 µM in the experiment on MALME-3M melanoma. Further, the TGI with OVCAR-5 ovarian was 30.7 µM; in the experiment with MDA-MB-435, 5.95 µM.
As to `CN(C)N1C(=O)SCC(c2ccccc2)(c2ccccc2)C1=O`, the TGI with SK-MEL-2 melanoma, in the experiment with CCRF-CEM leukemia, with EKVX NSCLC, in the experiment with SNB-75 CNS, in the experiment on MALME-3M melanoma and in the experiment on OVCAR-5 ovarian was above 100 µM throughout. In addition, the TGI in the experiment with MDA-MB-435, in the experiment with SK-MEL-5 melanoma and with OVCAR-3 ovarian was above 100 µM in each case.
Turning to `COc1ccc(/C=C(\NC(=O)c2ccccc2)c2nc3ccccc3[nH]2)cc1OC`, the TGI with SK-MEL-2 melanoma, with CCRF-CEM leukemia, in the experiment on EKVX NSCLC, with OVCAR-4 ovarian, in the experiment with SNB-75 CNS and with MALME-3M melanoma was above 100 µM each time. Besides, the TGI in the experiment with OVCAR-5 ovarian, in the experiment with SK-MEL-5 melanoma and with OVCAR-3 ovarian was above 100 µM in each case.
As to `O=C(CC1(O)C(=O)Nc2ccc(F)cc21)c1ccc(C(=O)NCC2CCC3(CC2)OOC2(CCCCC2)OO3)cc1` (centres undefined), the GI50 in the experiment on SK-MEL-2 melanoma was 5.95 µM; with CCRF-CEM leukemia it was 1810 nM; in the experiment with EKVX NSCLC, 1870 nM; with OVCAR-4 ovarian, 7.74 µM; in the experiment on MALME-3M melanoma, 2.21 µM; in the experiment with OVCAR-5 ovarian, 15.7 µM. Besides, the GI50 is 3.04 µM in the experiment on MDA-MB-435, 3.69 µM in the experiment with SK-MEL-5 melanoma and 1.85 µM with OVCAR-3 ovarian. In addition, the TGI turned out to be 20.7 µM in the experiment with SK-MEL-2 melanoma; 4.3 µM in the experiment with CCRF-CEM leukemia; 3.98 µM in the experiment on EKVX NSCLC; 32.5 µM in the experiment on OVCAR-4 ovarian; 5.13 µM with MALME-3M melanoma; 36.5 µM with OVCAR-5 ovarian. Besides, the TGI turned out to be 10.8 µM in the experiment with MDA-MB-435, 14.4 µM in the experiment on SK-MEL-5 melanoma and 4.18 µM in the experiment on OVCAR-3 ovarian.

For the origin of these results see PubChem BioAssay (NCI).
